# Results reported in paper PMC11288027, “Exploring novel microbial metabolites and drugs for inhibiting Clostridioides difficile” (mSphere, 2024).
# Read-outs that look alike come from different tables or passages of the source.
# Key:
# Bif. angulatum = experiment: MIC against human gut microbiota; format: cell-based, Bifidobacterium angulatum; settings: Bifidobacterium angulatum; Bif. angulatum HM- 1189, BHIS broth, anaerobic; read-out: minimum inhibitory concentration (MIC)
# E. faecium = experiment: MIC against human gut microbiota; format: cell-based, Enterococcus faecium; settings: Enterococcus faecium; E. faecium HM-202, TSB, aerobic; read-out: minimum inhibitory concentration (MIC)
# E. fecalis = experiment: MIC against human gut microbiota; format: cell-based, Enterococcus faecalis; settings: Enterococcus faecalis; E. fecalis HM-970, TSB, aerobic; read-out: minimum inhibitory concentration (MIC)
# Bif. breve = experiment: MIC against human gut microbiota; format: cell-based, Bifidobacterium breve; settings: Bifidobacterium breve, ATCC15700; Bif. breve ATCC 15700, BHIS broth, anaerobic; read-out: minimum inhibitory concentration (MIC)
# Bif. longum = experiment: MIC against human gut microbiota; format: cell-based, Bifidobacterium longum; settings: Bifidobacterium longum, anaerobic, read-out: minimum inhibitory concentration (MIC)
# [1] = Cytotoxicity assessment against Vero cells (MTS); settings: monkey, Vero cells (monkey kidney epithelial cells)
# [2] = system: monkey kidney epithelial (Vero) cells; experiment: Cytotoxicity assessment against Vero cells (MTS); settings: Vero IC50 relative to MIC90 of C. difficile panel
# L. casei = experiment: MIC against human gut microbiota; format: cell-based; settings: Lacticaseibacillus casei, ATCC334; L. casei ATCC 334, MRS broth, 5% CO2; read-out: minimum inhibitory concentration (MIC)
# L. brevis = experiment: MIC against human gut microbiota; format: cell-based, Lactobacillus brevis; settings: Levilactobacillus brevis, ATCC14864; L. brevis ATCC-14864, MRS broth, 5% CO2; read-out: minimum inhibitory concentration (MIC)
# [3] = system: C. difficile ATCC BAA-1870; experiment: MIC of active hits by broth microdilution; settings: C. difficile ATCC BAA-1870, 48 h anaerobic; for MIC: Clostridioides difficile, ATCCBAA1870, 48 h
# [4] = system: C. difficile clinical isolates; experiment: MIC against a panel of 20 C. difficile clinical isolates (broth microdilution); format: cell-based, Clostridioides difficile; settings: Clostridioides difficile; for MIC50: concentration that inhibited 50% of the 20 C. difficile clinical isolates
# Bif. adolescentis = experiment: MIC against human gut microbiota; format: cell-based, Bifidobacterium adolescentis; settings: Bifidobacterium adolescentis; Bif. adolescentis HM- 633, BHIS broth, anaerobic; read-out: minimum inhibitory concentration (MIC)
# L. rhamanosus = experiment: MIC against human gut microbiota; format: cell-based, Lactobacillus rhamnoosus; settings: Lactobacillus, ATCC53103; L. rhamanosus ATCC-53103, MRS broth, 5% CO2; read-out: minimum inhibitory concentration (MIC)
# B. dorei = experiment: MIC against human gut microbiota; format: cell-based, Bacteroides dorei; settings: Phocaeicola dorei; B. dorei HM- 719, BHIS broth, anaerobic; read-out: minimum inhibitory concentration (MIC)
# B. fragilis = experiment: MIC against human gut microbiota; format: cell-based, Bacteroides fragilis; settings: Bacteroides fragilis, anaerobic, read-out: minimum inhibitory concentration (MIC)
# [5] = system: methicillin-resistant S. aureus (MRSA); design: method as in earlier work; settings: cited from earlier work
# [6] = system: Mycobacterium tuberculosis; design: method as in earlier work; settings: read-out: half-maximal inhibitory concentration [IC50]; cited from earlier work
# Bacillus subtilis = system: Bacillus subtilis; design: method as in earlier work; settings: cited from earlier work
# in vitro = settings: monkey
# [7] = system: C. difficile ATCC BAA-1870; experiment: Time-kill assay at 5 × MIC; settings: C. difficile ATCC BAA-1870, ~10^6 CFU/mL, up to 24 h
# enterococcal species = experiment: MIC against human gut microbiota, summary in text; format: cell-based; settings: summary over the Enterococcus strains of Table 4
# Escherichia coli = system: Escherichia coli; design: method as in earlier work; settings: cited from earlier work
# [8] = Bif. longum HM- 845, BHIS broth
# [9] = Bif. longum HM- 846, BHIS broth
# [10] = Bif. longum HM- 847, BHIS broth
# [11] = Bif. longum HM- 848, BHIS broth
# [12] = B. fragilis HM- 709, BHIS broth
# [13] = B. fragilis HM- 718, BHIS broth
structure (smiles),measurement,setting,value
COC(=O)N/N=C/c1c[n+]([O-])c2ccccc2[n+]1[O-] [Carbadox],MIC,Bif. angulatum,4 µg/mL
same,MIC,E. faecium,128 µg/mL
same,MIC,E. fecalis,128 µg/mL
same,MIC,Bif. breve,16 µg/mL
same,MIC,Bif. longum; [8],4 µg/mL
same,MIC,Bif. longum; [9],8 µg/mL
same,MIC,Bif. longum; [10],16 µg/mL
same,MIC,Bif. longum; [11],4 µg/mL
same,IC50 at 24 h,[1],> 128 µg/mL
same,safety index: Vero IC50 as times the MIC90 against strains of C. difficile,[2],> 64 times
same,MIC,L. casei,128 µg/mL
same,MIC,L. brevis,32 µg/mL
same,MIC (μM),[3],4 µM
same,MIC,[3],1.05 µg/mL
same,MIC50,"[4]; 48 h, read-out: MIC50",1 µg/mL
same,MIC,"[4]; ATCC630, C. difficile ATCC 630, read-out: minimum inhibitory concentration (MIC)",1 µg/mL
same,MIC,"[4]; ATCC43255, C. difficile ATCC 43255, read-out: minimum inhibitory concentration (MIC)",1 µg/mL
same,MIC,"[4]; ATCCBAA1870, C. difficile ATCC BAA-1870 (Ribotype-027), purchased compounds, panel test, read-out: minimum inhibitory concentration (MIC)",2 µg/mL
same,MIC,"[4]; C. difficile CD-1 (Ribotype-027), read-out: minimum inhibitory concentration (MIC)",2 µg/mL
same,MIC,"[4]; C. difficile CD-6 (Ribotype-027), read-out: minimum inhibitory concentration (MIC)",0.5 µg/mL
same,MIC,"[4]; C. difficile CD-10(Ribotype-027), read-out: minimum inhibitory concentration (MIC)",2 µg/mL
same,MIC,"[4]; C. difficile CD-12, read-out: minimum inhibitory concentration (MIC)",2 µg/mL
same,MIC,"[4]; C. difficile CD-13, read-out: minimum inhibitory concentration (MIC)",1 µg/mL
same,MIC,"[4]; C. difficile CD-15, read-out: minimum inhibitory concentration (MIC)",1 µg/mL
same,MIC,"[4]; C. difficile CD-22, read-out: minimum inhibitory concentration (MIC)",2 µg/mL
same,MIC,"[4]; C. difficile CD-23, read-out: minimum inhibitory concentration (MIC)",2 µg/mL
same,MIC,"[4]; C. difficile CD-24, read-out: minimum inhibitory concentration (MIC)",1 µg/mL
same,MIC,"[4]; C. difficile CD-26 (Ribotype-027), read-out: minimum inhibitory concentration (MIC)",2 µg/mL
same,MIC,"[4]; C. difficile CD-28, read-out: minimum inhibitory concentration (MIC)",2 µg/mL
same,MIC,"[4]; C. difficile CD-29 (Ribotype-027), read-out: minimum inhibitory concentration (MIC)",0.5 µg/mL
same,MIC,"[4]; C. difficile CD-30, read-out: minimum inhibitory concentration (MIC)",2 µg/mL
same,MIC,"[4]; C. difficile NR-49302, read-out: minimum inhibitory concentration (MIC)",2 µg/mL
same,MIC,"[4]; C. difficile NR-49304, read-out: minimum inhibitory concentration (MIC)",1 µg/mL
same,MIC,"[4]; C. difficile NR-49308, read-out: minimum inhibitory concentration (MIC)",1 µg/mL
same,MIC,"[4]; C. difficile NR-49319, read-out: minimum inhibitory concentration (MIC)",0.5 µg/mL
same,MIC50,[4]; read-out: MIC50,1 µg/mL
same,MIC90,"[4]; concentration that inhibited 90% of the 20 C. difficile clinical isolates, read-out: MIC90",2 µg/mL
same,MIC,Bif. adolescentis,4 µg/mL
same,MIC,L. rhamanosus,> 256 µg/mL
same,MIC,B. dorei,2 µg/mL
same,MIC,B. fragilis; [12],2 µg/mL
same,MIC,B. fragilis; [13],2 µg/mL
"COc1cc2c(cc1O)CCN[C@]21CS[C@@H]2c3c(OC(C)=O)c(C)c4c(c3[C@H](COC1=O)N1[C@@H]2[C@H]2c3c(cc(C)c(OC)c3O)C[C@@H]([C@@H]1C#N)N2C)OCO4 [ET-770, ecteinascidin 770]",MIC,Bif. angulatum,≤ 2 µg/mL
same,MIC,[5],2.02 µM
same,MIC,E. faecium,≤ 2 µg/mL
same,MIC,E. fecalis,≤ 2 µg/mL
same,MIC,Bif. breve,≤ 2 µg/mL
same,MIC,Bif. longum; [8],≤ 2 µg/mL
same,MIC,Bif. longum; [9],≤ 2 µg/mL
same,MIC,Bif. longum; [10],≤ 2 µg/mL
same,MIC,Bif. longum; [11],≤ 2 µg/mL
same,safety index: Vero IC50 as times the MIC90 against strains of C. difficile,[2],more than 1024 times
same,IC50,[6],0.13 µM
same,MIC,L. casei,≤ 2 µg/mL
same,MIC,Bacillus subtilis,1.01 µM
same,IC50 at 24 h,in vitro,> 128 µg/mL
same,MIC,L. brevis,≤ 2 µg/mL
same,MIC,[3],≤ 0.19 µg/mL
same,MIC90,[4],0.125 µg/mL
same,MIC50,[4]; 48 h,≤ 0.06 µg/mL
same,MIC,"[4]; ATCC630, read-out: minimum inhibitory concentration (MIC), C. difficile ATCC 630",0.03 µg/mL
same,MIC,"[4]; ATCC43255, read-out: minimum inhibitory concentration (MIC), C. difficile ATCC 43255",0.06 µg/mL
same,MIC,"[4]; ATCCBAA1870, read-out: minimum inhibitory concentration (MIC), C. difficile ATCC BAA-1870 (Ribotype-027), purchased compounds, panel test",0.125 µg/mL
same,MIC,"[4]; read-out: minimum inhibitory concentration (MIC), C. difficile CD-1 (Ribotype-027)",0.125 µg/mL
same,MIC,"[4]; read-out: minimum inhibitory concentration (MIC), C. difficile CD-6 (Ribotype-027)",0.125 µg/mL
same,MIC,"[4]; read-out: minimum inhibitory concentration (MIC), C. difficile CD-10(Ribotype-027)",0.125 µg/mL
same,MIC,"[4]; read-out: minimum inhibitory concentration (MIC), C. difficile CD-12",0.125 µg/mL
same,MIC,"[4]; read-out: minimum inhibitory concentration (MIC), C. difficile CD-13",0.06 µg/mL
same,MIC,"[4]; read-out: minimum inhibitory concentration (MIC), C. difficile CD-15",0.06 µg/mL
same,MIC,"[4]; read-out: minimum inhibitory concentration (MIC), C. difficile CD-22",0.125 µg/mL
same,MIC,"[4]; read-out: minimum inhibitory concentration (MIC), C. difficile CD-23",0.06 µg/mL
same,MIC,"[4]; read-out: minimum inhibitory concentration (MIC), C. difficile CD-24",0.125 µg/mL
same,MIC,"[4]; read-out: minimum inhibitory concentration (MIC), C. difficile CD-26 (Ribotype-027)",0.125 µg/mL
same,MIC,"[4]; read-out: minimum inhibitory concentration (MIC), C. difficile CD-28",0.03 µg/mL
same,MIC,"[4]; read-out: minimum inhibitory concentration (MIC), C. difficile CD-29 (Ribotype-027)",0.06 µg/mL
same,MIC,"[4]; read-out: minimum inhibitory concentration (MIC), C. difficile CD-30",0.125 µg/mL
same,MIC,"[4]; read-out: minimum inhibitory concentration (MIC), C. difficile NR-49302",0.06 µg/mL
same,MIC,"[4]; read-out: minimum inhibitory concentration (MIC), C. difficile NR-49304",0.06 µg/mL
same,MIC,"[4]; read-out: minimum inhibitory concentration (MIC), C. difficile NR-49308",0.125 µg/mL
same,MIC,"[4]; read-out: minimum inhibitory concentration (MIC), C. difficile NR-49319",0.06 µg/mL
same,MIC50,[4],0.06 µg/mL
same,MIC,Bif. adolescentis,≤ 2 µg/mL
same,MIC,L. rhamanosus,≤ 2 µg/mL
same,time to eliminate / clear C. difficile,[7],6 h
same,MIC,B. dorei,≤ 2 µg/mL
same,MIC,enterococcal species,≤ 2 µg/mL
same,MIC,Escherichia coli,32.43 µM
same,MIC,B. fragilis; [12],≤ 2 µg/mL
same,MIC,B. fragilis; [13],≤ 2 µg/mL
